Tests used:
SMARCA2 = biological target: T1, SMARCA2 (Homo sapiens, UniProt P51531); experiment: SMARCA2 HiBiT degradation assay in HeLa cells; format: cell-based; conditions: 18 hours incubation
T1 construct: SMARCA2-HiBiT knock-in Hela monoclonal cell (CS302366); host or cells: HeLa SMARCA2-HiBiT knock-in monoclonal cells (heterozygous knock-in)
Protocol: (§1) Example A. SMARCA2 HiBiT and SMARCA4 HiBiT Degradation Assay
(§2) Preparation of SMARCA2/4-HiBiT Knock-In Cells
(§3) HiBiT peptide knock-in of SMARCA2 in LgBiT expressing HEK293T cells was performed by CRISPR-mediated tagging system as described Promega. The homozygous HiBiT knock-in on c-terminus SMARCA2 was confirmed by sanger sequence. SMARCA2-HiBiT knock-in Hela monoclonal cell (CS302366) and SMARCA4-HiBiT knock-in Hela monoclonal cell (CS3023226) were purchased from Promega. The heterozygous HiBiT-knock-in was confirmed by sanger sequence in both SMARCA2-HiBiT and SMARCA4-HiBiT monoclonal cells.
(§4) SMARCA2 HiBiT and SMARCA4 HiBiT Degradation Assay in HeLa Cells
(§5) Compounds were dissolved in DMSO to make 10 mM stock and 3-fold series dilutions were further conducted keeping the highest concentration 10 μM. NCIH1693 and NCIH520 cells were maintained in PRMI 1640 medium (Corning Cellgro, Catalog #:10-040-CV) supplemented with 10% v/v FBS (GE Healthcare, Catalog #: SH30910.03) by splitting 1:3 twice a week.
(§6) Dispense 10 ul aliquot of prepared Hela-SMARCA2-HiBiT or Hela-SMARCA4-HiBiT cells (1:1 ratio of cells:Trypan Blue (#1450013, Bio-Rad)) onto cell counting slide (#145-0011, Bio-Rad) and obtain cell density and cell viability using cell counter (TC20, Bio-Rad). Remove appropriate volume of resuspended cells from culture flask to accommodate 2500 cells/well @[…]. Transfer Hela-HiBiT cells to 50 mL conical (#430290, Corning). Spin down at 1000 rpm for 5 min using tabletop centrifuge (SPINCHRON 15, Beckman). Discard supernatant and resuspend cell pellet in modified EMEM (#30-2003, ATCC) cell culture media containing 10% FBS (F2422-500 ML, Sigma), and 1× Penicillin/Streptomycin (200 g/L) (30-002-CI, Corning) to a cell density of 125,000 cells/mL. Dispense […] of resuspended Hela-HiBit cells per well in 384-well TC treated plate (#12-565-343, Thermo Scientific) using standard cassette (#50950372, Thermo Scientific) on Multidrop Combi (#5840310, Thermo Scientific) inside laminar flow cabinet. Dispense test compounds onto plates using digital liquid dispenser (D300E, Tecan). Incubate plates in humidified tissue culture incubator @37° C. for 18 hours. Add […] of prepared Nano-Glo® HiBiT Lytic detection buffer (N3050, Promega) to each well of 384-well plate using small tube cassette (#24073295, Thermo Scientific) on Multidrop Combi, incubate @RT for 30-60 min. Read plates on microplate reader (Envision 2105, PerkinElmer) using 384 well Ultra-Sensitive luminescence mode. Raw data files and compound information reports are swept into centralized data lake and deconvoluted using automated scripts designed by TetraScience, Inc. Data analysis, curve-fitting and reporting done in Dotmatics Informatics Suite using Screening Ultra module.
(§7) In Table 5, A=DC50<0.1 μM; B=0.1 μM≤DC50<1 μM and C=DC50>1 μM. In Table 5, A=Dmax>75% and B=50%<Dmax≤75% and C=Dmax<50%.

SMARCA4 = biological target: T2, SMARCA4 (Homo sapiens, UniProt P51532); experiment: SMARCA4 HiBiT degradation assay in HeLa cells; format: cell-based; conditions: 18 hours incubation
T2 construct: SMARCA4-HiBiT knock-in Hela monoclonal cell (CS3023226) were purchased from Promega; host or cells: HeLa SMARCA4-HiBiT knock-in monoclonal cells (heterozygous knock-in)
T2 sequence (P51532 whole entry): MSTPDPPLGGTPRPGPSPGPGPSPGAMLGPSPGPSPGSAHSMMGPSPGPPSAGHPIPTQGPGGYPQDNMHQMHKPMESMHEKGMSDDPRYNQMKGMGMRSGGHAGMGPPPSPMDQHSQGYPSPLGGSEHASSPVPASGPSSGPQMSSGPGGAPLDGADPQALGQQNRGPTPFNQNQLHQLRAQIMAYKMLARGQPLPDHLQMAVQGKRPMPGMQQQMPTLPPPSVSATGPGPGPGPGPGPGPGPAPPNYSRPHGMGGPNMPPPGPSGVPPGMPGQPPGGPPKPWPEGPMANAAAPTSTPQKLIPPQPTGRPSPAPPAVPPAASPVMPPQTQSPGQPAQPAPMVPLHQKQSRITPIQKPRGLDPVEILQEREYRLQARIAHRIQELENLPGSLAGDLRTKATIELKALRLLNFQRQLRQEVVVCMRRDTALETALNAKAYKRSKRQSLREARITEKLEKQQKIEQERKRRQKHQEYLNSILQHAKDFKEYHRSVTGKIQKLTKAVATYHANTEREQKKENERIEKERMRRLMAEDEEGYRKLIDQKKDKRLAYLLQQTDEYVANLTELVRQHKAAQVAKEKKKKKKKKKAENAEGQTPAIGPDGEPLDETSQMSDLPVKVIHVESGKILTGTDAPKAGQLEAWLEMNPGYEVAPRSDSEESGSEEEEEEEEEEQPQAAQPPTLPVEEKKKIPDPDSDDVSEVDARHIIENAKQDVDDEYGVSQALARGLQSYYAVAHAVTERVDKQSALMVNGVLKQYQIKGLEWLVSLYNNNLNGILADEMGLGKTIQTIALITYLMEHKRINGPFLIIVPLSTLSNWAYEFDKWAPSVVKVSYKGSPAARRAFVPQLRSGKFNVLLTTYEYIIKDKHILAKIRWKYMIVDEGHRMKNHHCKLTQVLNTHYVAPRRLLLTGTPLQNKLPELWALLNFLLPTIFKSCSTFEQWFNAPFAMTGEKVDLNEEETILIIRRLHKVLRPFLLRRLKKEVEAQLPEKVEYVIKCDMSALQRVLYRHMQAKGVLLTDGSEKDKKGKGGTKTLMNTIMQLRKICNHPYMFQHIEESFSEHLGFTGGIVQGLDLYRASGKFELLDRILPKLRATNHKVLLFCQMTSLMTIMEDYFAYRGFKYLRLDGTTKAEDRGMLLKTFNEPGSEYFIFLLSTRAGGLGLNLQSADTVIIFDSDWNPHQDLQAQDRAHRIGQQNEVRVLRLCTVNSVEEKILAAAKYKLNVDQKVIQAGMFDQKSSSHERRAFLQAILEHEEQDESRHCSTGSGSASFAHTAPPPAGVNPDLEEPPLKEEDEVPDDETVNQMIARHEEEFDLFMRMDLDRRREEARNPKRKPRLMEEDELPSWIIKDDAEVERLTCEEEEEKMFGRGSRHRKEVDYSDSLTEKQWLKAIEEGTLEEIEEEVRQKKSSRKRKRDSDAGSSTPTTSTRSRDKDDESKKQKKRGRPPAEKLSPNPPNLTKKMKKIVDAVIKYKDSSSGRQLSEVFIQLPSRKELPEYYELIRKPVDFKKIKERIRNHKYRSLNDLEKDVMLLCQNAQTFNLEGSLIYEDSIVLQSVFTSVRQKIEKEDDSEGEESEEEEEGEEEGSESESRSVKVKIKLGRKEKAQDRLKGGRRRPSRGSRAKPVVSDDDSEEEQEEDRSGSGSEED
Protocol: as §1, §2, §3, §4, §5, §6, §7

T1 sequence (P51531 whole entry): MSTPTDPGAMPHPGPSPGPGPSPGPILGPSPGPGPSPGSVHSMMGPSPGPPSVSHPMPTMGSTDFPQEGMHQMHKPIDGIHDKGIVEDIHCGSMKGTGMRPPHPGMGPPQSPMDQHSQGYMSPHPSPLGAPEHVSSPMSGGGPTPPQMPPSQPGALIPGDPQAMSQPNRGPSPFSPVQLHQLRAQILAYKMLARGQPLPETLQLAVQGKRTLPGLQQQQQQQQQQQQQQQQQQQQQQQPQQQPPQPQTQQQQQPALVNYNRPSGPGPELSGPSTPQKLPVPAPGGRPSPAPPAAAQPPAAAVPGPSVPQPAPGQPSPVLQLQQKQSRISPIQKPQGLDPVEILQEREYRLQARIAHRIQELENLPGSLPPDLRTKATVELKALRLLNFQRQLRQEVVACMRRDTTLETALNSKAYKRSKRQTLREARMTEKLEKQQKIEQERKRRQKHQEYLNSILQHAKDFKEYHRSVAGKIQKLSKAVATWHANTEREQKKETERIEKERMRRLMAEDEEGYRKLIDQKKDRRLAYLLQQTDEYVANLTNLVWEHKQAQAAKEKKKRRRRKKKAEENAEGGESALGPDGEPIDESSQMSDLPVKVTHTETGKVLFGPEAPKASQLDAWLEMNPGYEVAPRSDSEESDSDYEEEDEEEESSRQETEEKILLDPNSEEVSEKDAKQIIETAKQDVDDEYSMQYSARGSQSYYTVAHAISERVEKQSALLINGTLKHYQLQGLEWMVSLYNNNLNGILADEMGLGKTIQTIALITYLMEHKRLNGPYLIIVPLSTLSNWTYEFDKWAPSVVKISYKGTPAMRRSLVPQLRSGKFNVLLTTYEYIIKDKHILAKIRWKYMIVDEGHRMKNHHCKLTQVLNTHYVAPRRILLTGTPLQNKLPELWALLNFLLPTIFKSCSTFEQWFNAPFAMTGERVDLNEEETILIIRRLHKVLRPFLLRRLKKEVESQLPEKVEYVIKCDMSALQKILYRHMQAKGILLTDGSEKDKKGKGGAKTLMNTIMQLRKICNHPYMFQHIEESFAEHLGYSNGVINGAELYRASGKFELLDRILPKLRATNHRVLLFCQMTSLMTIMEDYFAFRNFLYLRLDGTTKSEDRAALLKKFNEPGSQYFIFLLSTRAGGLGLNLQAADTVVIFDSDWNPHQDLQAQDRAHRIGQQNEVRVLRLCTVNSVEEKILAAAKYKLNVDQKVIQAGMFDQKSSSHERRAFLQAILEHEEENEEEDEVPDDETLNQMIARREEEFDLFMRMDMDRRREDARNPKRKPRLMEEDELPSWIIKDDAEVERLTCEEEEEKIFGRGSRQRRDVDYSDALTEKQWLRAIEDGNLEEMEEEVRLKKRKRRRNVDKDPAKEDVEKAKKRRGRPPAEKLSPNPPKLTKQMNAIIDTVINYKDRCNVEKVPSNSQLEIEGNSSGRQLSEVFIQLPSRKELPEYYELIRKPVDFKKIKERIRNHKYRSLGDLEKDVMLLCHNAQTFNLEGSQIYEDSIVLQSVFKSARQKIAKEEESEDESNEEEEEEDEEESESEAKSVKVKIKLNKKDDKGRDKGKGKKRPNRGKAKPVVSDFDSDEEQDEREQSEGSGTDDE

Row | Compound | DC50 (SMARCA2) [nM] | Dmax (SMARCA2) [%] | DC50 (SMARCA4) [nM] | Dmax (SMARCA4) [%]
1 | CC1(C)CN(CC2CCN(c3ccc4c(c3)C(=O)N([C@H]3CCC(=O)NC3=O)C4)CC2)CCN1C(=O)N1CC2CCC1Cc1c2[nH]c2nnc(-c3cccc(F)c3O)cc12 (stereo partly drawn) [Example 7, (3S)-3-(6-(4-((4-(3-(3-fluoro-2-hydroxyphenyl)-5,6,7,8,9,10-hexahydro-6,9-(epiminomethano)cyclohepta[4,5]pyrrolo[2,3-c]pyridazine-12-carbonyl)-3,3-dimethylpiperazin-1-yl)methyl)piperidin-1-yl)-1-oxoisoindolin-2-yl)piperidine-2,6-dione] | 100 to 1000 | < 50 | 100 to 1000 | < 50
2 | O=C1CC[C@H](N2Cc3ccc(N4CCC(CN5CCN(C(=O)N6CCc7[nH]c8nnc(-c9ccccc9O)cc8c7CC6)CC5)CC4)cc3C2=O)C(=O)N1 [Example 3, (S)-3-(6-(4-((4-(3-(2-hydroxyphenyl)-5,6,7,8,9,10-hexahydropyridazino[4′,3′:4,5]pyrrolo[2,3-d]azepine-7-carbonyl)piperazin-1-yl)methyl)piperidin-1-yl)-1-oxoisoindolin-2-yl)piperidine-2,6-dione] | < 100 | > 75 | < 100 | > 75
3 | C[C@@H]1CN(CC2CCN(c3ccc4c(c3)C(=O)N([C@H]3CCC(=O)NC3=O)C4)CC2)C[C@H](C)N1C(=O)N1CCc2[nH]c3nnc(-c4ccccc4O)cc3c2CC1 [Example 2, (S)-3-(6-(4-(((3R,5S)-4-(3-(2-hydroxyphenyl)-5,6,7,8,9,10-hexahydropyridazino[4′,3′:4,5]pyrrolo[2,3-d]azepine-7-carbonyl)-3,5-dimethylpiperazin-1-yl)methyl)piperidin-1-yl)-1-oxoisoindolin-2-yl)piperidine-2,6-dione] | < 100 | > 75 | < 100 | > 75
4 | CC1(C)CN(CC2CCN(c3ccc4c(c3)C(=O)N([C@H]3CCC(=O)NC3=O)C4)CC2)CCN1C(=O)N1CCc2[nH]c3nnc(-c4cccc(F)c4O)cc3c2CC1 [Example 4, (S)-3-(6-(4-((4-(3-(3-Fluoro-2-hydroxyphenyl)-5,6,7,8,9,10-hexahydro-pyridazino[4′,3′:4,5]pyrrolo[2,3-d]azepine-7-carbonyl)-3,3-dimethylpiperazin-1-yl)methyl)piperidin-1-yl)-1-oxoisoindolin-2-yl)piperidine-2,6-dione] | < 100 | 50 to 75 | > 1000 | < 50
5 | CC1(C)CN(CC2CCN(c3ccc4c(c3)C(=O)N([C@H]3CCC(=O)NC3=O)C4)CC2)CCN1C(=O)N1C2CCC1Cc1c([nH]c3nnc(-c4cccc(F)c4O)cc13)C2 (stereo partly drawn) [Example 6, (3S)-3-(6-(4-((4-(3-(3-fluoro-2-hydroxyphenyl)-6,7,8,9,10,11-hexahydro-5H-6,9-epiminocycloocta[4,5]pyrrolo[2,3-c]pyridazine-12-carbonyl)-3,3-dimethylpiperazin-1-yl)methyl)piperidin-1-yl)-1-oxoisoindolin-2-yl)piperidine-2,6-dione] | < 100 | > 75 | 100 to 1000 | 50 to 75
6 | CC1(C)CN(CC2CCN(c3ccc4c(c3)C(=O)N([C@H]3CCC(=O)NC3=O)C4)CC2)CCN1C(=O)N1CCc2[nH]c3nnc(-c4ccccc4O)cc3c2CC1 [Example 1, (S)-3-(6-(4-((4-(3-(2-Hydroxyphenyl)-5,6,7,8,9,10-hexahydropyridazino [4′,3′:4,5]pyrrolo[2,3-d]azepine-7-carbonyl)-3,3-dimethylpiperazin-1-yl)methyl)piperidin-1-yl)-1-oxoisoindolin-2-yl)piperidine-2,6-dione] | < 100 | > 75 | < 100 | > 75
7 | CCC1CN(C(=O)N2CCN(CC3CCN(c4ccc5c(c4)C(=O)N([C@H]4CCC(=O)NC4=O)C5)CC3)CC2(C)C)CCc2c1[nH]c1nnc(-c3cccc(F)c3O)cc21 (stereo partly drawn) [Example 5, (3S)-3-(6-(4-((4-(9-ethyl-3-(3-fluoro-2-hydroxyphenyl)-5,6,7,8,9,10-hexahydropyridazino[4′,3′:4,5]pyrrolo[2,3-d]azepine-7-carbonyl)-3,3-dimethylpiperazin-1-yl)methyl)piperidin-1-yl)-1-oxoisoindolin-2-yl)piperidine-2,6-dione] | 100 to 1000 | 50 to 75 | > 1000 | < 50

From patent US20250074916A1, “BRM TARGETING COMPOUNDS AND ASSOCIATED METHODS OF USE” (Prelude Therapeutics Incorporated, priority 2023, published 2025)
